From patent publication US20230270753A1, “COMBINATIONS OF GABAA ALPHA 5 AGONISTS AND SV2A INHIBITORS AND METHODS OF USING IN THE TREATMENT OF COGNITIVE IMPAIRMENT” (AGENEBIO, INC., priority 2020, published 2023)
“Also recorded” adds a separate entry of the source. Like-named read-outs stand apart in the source and are kept apart here.

Columns and labels:
[1] = type: physicochemical; conditions: solvent-mediated slurries, ambient temperature (Form E also 55° C. and 77° C.)
Method: Interconversion experiments were performed to identify the most thermodynamically stable anhydrous form of Compound 1 (Table 19). […] The choice of solvent affects the kinetics of polymorph conversion and not the thermodynamic relationship between polymorphic forms.
Various combinations of Forms B, E, F, and Material D were slurried with Form A at ambient and elevated temperatures (for experiments involving Form E). Different solvent systems were used and included a variety of water activities. Saturated solutions were generated and then added to the mixtures composed of approximately equivalent quantities of the forms. The mixtures were slurried for a particular duration of time and the solids harvested and analyzed by XRPD.

[2] = Dynamic vapor sorption (DVS); type: physicochemical; conditions: for hygroscopicity class: DVS isotherm; for form of the material recovered from the DVS experiment by XRPD: post DVS
Method: Dynamic vapor sorption data was collected on a Surface Measurement System DVS Intrinsic instrument. The samples were not dried prior to analysis. Sorption and desorption data were collected over a range from 5% to 95% RH in 10% RH increments under a nitrogen purge. The equilibrium criteria used for the analyses were 0.001 dm/dt weight change in 5 minutes with a minimum step time of 30 minutes and maximum equilibration time of 180 minutes with a 3-minute data logging interval. Data were not corrected for the initial moisture content of the sample. The samples were identified as having low, limited or significant hygroscopicity based on the definitions in the below table.

[3] = system: Aged-Impaired rats (AI rats); test: Radial Arm Maze task, 2-hr delay, acute brivaracetam or seletracetam (Example 4); type: in vivo, rat; conditions: doses 0.0625-4 mg/kg i.p., 30-40 min prior to test; repeated measures ANOVA
Description: All rats were screened in a standardized assessment of spatial cognition prior to the studies with experimental treatments. That background assessment used a well-established Morris Water Maze protocol. The MWM protocol was substantially the same as the one described in Example 1. See, also, Gallagher et al., Behav. Neurosci. 107:618-626, (1993). Briefly, the rats were trained for eight days (three trials per day) to locate a camouflaged escape platform that remained at the same location throughout training in a water maze. Every sixth trial consisted of a probe trial (free swim with no escape platform) that served to assess the development of a spatially localized search for the escape platform. During these probe trials, a learning index was generated from the proximity of the rat to the escape platform and was used to define impairment in the aged rats. The learning index is the sum of weighted proximity scores obtained during probe trials, with low scores reflecting a search near the escape platform and high scores reflecting searches farther away from the platform (Gallagher et al, 1993). Cue training (visible escape platform) occurred on the last day of training to test for sensorimotor and motivational factors independent of spatial learning. […]

[4] = Differential scanning calorimetry / thermogravimetry; type: physicochemical; conditions: DSC 10° C./min
Method: DSC was performed using a Mettler-Toledo DSC3+ differential scanning calorimeter. A tau lag adjustment is performed with indium, tin, and zinc. The temperature and enthalpy are adjusted with octane, phenyl salicylate, indium, tin and zinc. The adjustment is then verified with octane, phenyl salicylate, indium, tin, and zinc. The sample was placed into a hermetically sealed aluminum DSC pan, the weight was accurately recorded, and the sample was inserted into the DSC cell. A weighed aluminum pan configured as the sample pan was placed on the reference side of the cell. The pan lid was pierced prior to sample analysis. The samples were analyzed from −25° C. to 250° C. at 10° C./min.
Thermogravimetric analyses were performed using a Mettler-Toledo TGA/DSC3+ analyzer. Temperature calibration was performed using calcium oxalate, indium, tin, and zinc. The sample was placed in an aluminum pan. The pan was hermetically sealed, the lid was pierced, and the pan was then inserted into the TG furnace. A weighed aluminum pan configured as the sample pan was placed on the reference platform. The furnace was heated under nitrogen. Samples were analyzed from 25° C. to 350° C. at 10° C./min.

[5] = type: physicochemical
Method: XRPD patterns were collected with a PANalytical X'Pert PRO MPD or a PANalytical Empyrean diffractometer using an incident beam of Cu radiation produced using an Optix long, fine-focus source. An elliptically graded multilayer mirror was used to focus Cu Kα X-rays through the specimen and onto the detector. Prior to the analysis, a silicon specimen (NIST SRM 640e) was analyzed to verify the observed position of the Si 111 peak is consistent with the NIST-certified position. A specimen of the sample was sandwiched between 3-μm-thick films and analyzed in transmission geometry. A beam-stop, short antiscatter extension, and antiscatter knife edge were used to minimize the background generated by air. Soller slits for the incident and diffracted beams were used to minimize broadening from axial divergence. Diffraction patterns were collected using a scanning position-sensitive detector (X'Celerator) located 240 mm from the specimen and Data Collector software v. 5.5.

[6] = system: MAM-treated rats; conditions: cited from earlier work
[7] = system: memory-impaired aged rats; test: Water maze after chronic brivaracetam by osmotic mini-pump (Example 4); type: in vivo, rat; conditions: brivaracetam 2 mg/kg/day by osmotic mini-pump, 14 days, probe test
Method: The radial arm maze experiments used acute administration of seletracetam (0-4 mg/kg), brivaracetam (0-4 mg/kg), or saline vehicle given by intraperitoneal injection (in a volume of 1 ml/kg) 30-40 min prior to test sessions.
Rats were trained and tested in a novel water maze environment to assess the effect of drug treatment. The water maze used here was housed in a different building and was surrounded by curtains with a novel set of patterns relative to the maze used for initial assessment of cognitive status. The training protocol consisted of 6 trials per day for 2 days to locate a submerged escape platform. On each trial, a rat was released in the maze from one of four equally spaced starting positions around the perimeter of the pool. The starting position varied from trial to trial. […] The rat was then removed from the platform and placed in a holding cage for another 40 s before the next trial. Approximately 24 hr after the last training trial, a probe test in the absence of the escape platform was given to assess spatial memory.

Structure (SMILES): COCc1nnc2n1Cc1c(C#Cc3cnc(OC)s3)ncn1-c1ccc(Cl)cc1-2 [Form A]
- relative thermodynamic stability between crystalline forms [1]: more thermodynamically stable than Form B and Material D at ambient temperature and Form E at ambient temperature, 55° C., and 77 °C
- relative thermodynamic stability between crystalline forms ([1]; listed as Form A of Compound 1): superior stability
- hygroscopicity class ([2]; 5% to 95% RH): limited hygroscopicity; also recorded: low hygroscopicity
- weight change through the sorption/desorption cycle ([2]; DVS, 5% to 95% RH): ~0.3%
- form of the material recovered from the DVS experiment by XRPD [2]: identified as the same as the starting material

Structure (SMILES): CC[C@@H](C(N)=O)N1C[C@H](C=C(F)F)CC1=O [seletracetam, (2S)-2-[(4S)-4-(2,2-difluoroethenyl)-2-oxopyrrolidin-1-yl]butanamide]
- number of errors in the retention phase after the 2-hr delay [3]: significant effect as a function of dose

Structure (SMILES): COCc1nnc2n1Cc1c(C#Cc3cnc(OC)s3)ncn1-c1ccc(Cl)cc1-2 [Form C]
- onset of DSC exotherm due to decomposition [4]: 190 °C
- stability of the form on ambient storage ([5]; 9 weeks under ambient conditions): remain unchanged
- stability of the form on heating ([5]; overnight exposure to 80° C.): desolvate to Form B

Structure (SMILES): NC1=N[C@H](O)[C@H]2[C@H]3O[C@]4(O)O[C@@H]([C@@H](O)[C@@]2(N1)[C@@H]4O)[C@]3(O)CO [tetrodotoxin]
- DA neuron population activity ([6]; rat, in vivo): completely reversed the elevated DA neuron population activity
- amphetamine-induced locomotor behavior ([6]; rat, in vivo): normalized the augmented amphetamine-induced locomotor behavior

Structure (SMILES): COCc1nnc2n1Cc1c(C#Cc3cnc(OC)s3)ncn1-c1ccc(Cl)cc1-2 [Form F]
- hygroscopicity class ([2]; 5% to 95% RH): limited hygroscopicity
- weight gain on sorption ([2]; DVS, 5-95% RH): 1.8%
- weight loss upon desorption ([2]; DVS, with significant hysteresis): 1.5%
- form of the material recovered from the DVS experiment by XRPD [2]: still Form F
- onset of DSC exotherm due to decomposition [4]: above 120 °C
- stability of the form under vacuum ([5]; 5 days under vacuum at ambient temperature): remain unchanged

Structure (SMILES): COCc1nnc2n1Cc1c(C#Cc3cnc(OC)s3)ncn1-c1ccc(Cl)cc1-2 [Material D]
- relative thermodynamic stability between crystalline forms [1]: metastable relative to Form A
- stability of the form on ambient storage ([5]; 7 weeks of ambient storage, mixture with Form A): Material D still remained

Structure (SMILES): COCc1nnc2n1Cc1c(C#Cc3cnc(OC)s3)ncn1-c1ccc(Cl)cc1-2 [Form B]
- relative thermodynamic stability between crystalline forms [1]: metastable relative to Form A
- onset of DSC exotherm due to decomposition [4]: about 190 °C

Structure (SMILES): COCc1nnc2n1Cc1c(C#Cc3cnc(OC)s3)ncn1-c1ccc(Cl)cc1-2 [Form E]
- relative thermodynamic stability between crystalline forms [1]: metastable relative to Form A

Structure (SMILES): CCC[C@@H]1CC(=O)N([C@@H](CC)C(N)=O)C1 [brivaracetam, (2S)-2-[(4R)-2-oxo-4-propylpyrrolidin-1-yl]butanamide]
- time in the target annulus vs vehicle-treated rats [7]: significantly more time in the target annulus
- time in the target quadrant vs vehicle-treated rats [7]: significantly more time in the target quadrant
- spatial bias for the target quadrant compared to the other control quadrants ([7]; n=3/group): significant spatial bias
- number of errors in the retention phase after the 2-hr delay [3]: significant effect as a function of dose

Structure (SMILES): C#Cc1ccc2c(c1)C(c1ccccc1F)=N[C@H](C)c1c(C(=O)OCC)ncn1-2 [SH-053-2′F—R—CH3]
- number of spontaneously active DA neurons in the ventral tegmental area (VTA) ([6]; MAM rats, administered systemically or infused into the ventral HPC): reduces the number of spontaneously active DA neurons
- locomotor response to amphetamine ([6]; MAM-treated rats): is reduced
